# Measured values taken from patent US20250215071A1, “Novel Mcl-1 inhibitor and combination of Mcl-1 and a BH3 mimetic, such as a Bcl-2 inhibitor” (NETRIS PHARMA, priority 2022, published 2025).
# Residues, ends and D or L forms follow the SMILES beside them. *: point of attachment. Cbz = O=C(OCc1ccccc1)*
# Experiments:
# Assay type in all cases: cell-based, Human
# HeLa UNC5B cells = assay: UNC5B-induced DNA fragmentation in HeLa UNC5B cells; settings: doxycycline-induced UNC5B; 18 hours
# Procedure: FIG. 2. CRISPR-Cas9 screening identifies genes and molecular pathways involved in UNC5B-induced cell death. Related to FIG. 1. (A): UNC5B induction upon treatment with doxycycline. Stable HCT116 cells, inducible for UNC5B, were treated with the indicated concentrations of doxycycline (Dox). 24 hours later, protein levels of FLAG-UNC5B and GAPDH, used as housekeeping gene, were assessed by western blot. (B): UNC5B induction upon treatment with doxycycline on Hela cells. Stable Hela cells inducible for UNC5B (HeLa UNC5B) were treated with the indicated doses of Dox for 18 hours. Protein levels of His-UNC5B and β-actin, used as housekeeping gene, were measured by western blot. (C,D,E): Induction of UNC5B triggers apoptotic cell death in HCT116 cells. Stable HCTT16 cells inducible for human UNC5B were treated with Dox. To assess cell death, propidium iodide (PI) incorporation was followed in real-time up to 36 hours, using an Incucyte Zoom technology (n=3, ** p<0.01, Kolmogorov Smirnov test) (C). Apoptosis was assessed 18 hours after Dox treatment by DNA fragmentation through flow cytometry ([…] (D) and by caspase-3 activity (E), quantified by fluorometric detection kit (n=3, *p<0.05, ** p<0.01, *** p<0.001, Ordinary two-way ANOVA). Values are given as means±SEM. (F): Caspase inhibition rescues apoptosis triggered by UNC5B. HeLa UNC5B cells were treated with Dox and the pan-caspase inhibitor […] (QVD). 18 hours later, DNA fragmentation was evaluated by flow cytometry (n=3, **** p<0.0001, ordinary two-way ANOVA with Šidák's multiple comparisons test). Values are given as means±SEM. […] The number of guides showing an increase in reads compared to control condition is shown for each gene.
# FIG. 4. […] 18 hours after treatment, apoptosis was measured by DNA fragmentation (A) and caspase-3 activity (B) (n=3-4, **** p<0.0001, ordinary two-way ANOVA with Tukey's multiple comparisons test). […] Protein levels of Mcl-1, Bcl-2 and Bcl-XL, as well as of UNC5B and B-actin, used as housekeeping gene, were evaluated by western blot. […]
# caspase-3 = assay: UNC5B-induced caspase-3 activity in HeLa UNC5B cells; settings: doxycycline 2 μg/mL; 18 hours
# Procedure: Caspase-3 and -9 activity assays were performed as described previously (Paradisi et al., 2013; Paradisi et al., 2009). Briefly, HCT116 and HeLa cells were seeded and treated as for DNA fragmentation assay. Cells were then collected and caspase-3/caspase 9 activity assays were performed using the Caspase-3/Caspase-9 Fluorometric Assay Kit (BioVision, Milpitas, CA, USA), according to the manufacturer's instructions. Caspase activity (activity/min/mg of protein) was calculated from a 1 h kinetic cycle reading on a spectrofluorometer (405 nm/510 nm, Infinite F500, Tecan, Männedorf, Switzerland).
# caspase-9 = assay: UNC5B-induced caspase-9 activity in HeLa UNC5B cells; settings: Dox; 18 hours
# Procedure: FIG. 5. UNC5B-mediated Mcl-1 degradation induces MOMP and caspase-9 activation. (A): UNC5B over-expression triggers Mitochondrial Outer Membrane Permeabilization (MOMP) in a COMMD2/CRL3 complex-dependent manner. Hela cells were transfected with scramble (siCTRL), COMMD2 (siCOMMD2-1) or RBX1 (siRBX1-1) siRNAs. 24 hours after transfection, cells were treated with Dox and after further 18 hours mitochondrial depolarization quantified by 5′,6,6′-tetrachloro-1,1′,3,3′-tetraethylbenzimi-dazolylcarbocyanine iodide (JC-1) dye staining, using NucleoCounter NC3000 (n=3, **** p<0.0001, ordinary two-way ANOVA with Tukey's multiple comparisons test). Values are given as means±SEM. (B,C,D): Apoptotic cell death induced by UNC5B over-expression requires caspase-9. HeLa UNC5B cells were transfected with scramble (siCTRL) or caspase-9 (siCASP9) siRNAs and 24 hours later treated with the indicated concentrations of Dox. Propidium iodide (PI)-positive cells were assessed in real-time up to 48 hours using Incucyte Zoom instrument (C) (n=[…], Kolmogorov-Smirnov test). DNA fragmentation was assessed by FACS analysis (D) and caspase-3 was measured using caspase-3 fluorometric kit (E), both 18 hours after treatment (n=[…], **** p<0.0001, ordinary two-way ANOVA with Šidák's multiple comparisons test). Values are given as means±SEM. […] HeLa UNC5B cells were treated with Dox and 18 hours later caspase-9 and -8 activities were assessed by fluorometric kit, using specific substrates (n=3, ^nsp>0.05, *p<0.05, Mann-Whitney test, one-tailed). […] 24 hours later, cells were treated with Dox and caspase-9 activity was measured by fluorometric kit (n=3, **** p<0.0001, ordinary two-way ANOVA with Tukey's multiple comparisons test). […] 18 hours after treatment, caspase-9 activity was assessed with the fluorometric kit (n=5, *p<0.05, ** p<0.01, *** p<0.001, **** p<0.0001, ordinary two-way ANOVA with Tukey's multiple comparisons test). […] Cells were then treated with Dox and Mcl-1 protein was evaluated by western blot. […]
# Mcl-1 = Mcl-1 protein levels by western blot in HeLa UNC5B cells; settings: endogenous Mcl-1; 2 μg/mL Dox; BTZ 1 μM, QVD 10 µM; 16 hours
# Procedure: FIG. 4. UNC5B triggers proteasomal degradation of Mcl-1. (A,B): UNC5B-induced apoptosis requires proteasome activity. Stable Hela cells inducible for UNC5B (HeLa UNC5B) were treated with doxycycline (Dox) at 2 μg/mL, in combination with the indicated doses of the proteasome inhibitors MG132 and bortezomib (BTZ). 18 hours after treatment, apoptosis was measured by DNA fragmentation (A) and caspase-3 activity (B) (n=3-4, **** p<0.0001, ordinary two-way ANOVA with Tukey's multiple comparisons test). Values are given as means±SEM Treatment with proteasome inhibitors was sufficient to strongly reduce apoptosis induction upon UNC5B over-expression. (C): UNC5B triggers Mcl-1 degradation. HeLa UNC5B cells were treated with 2 μg/mL of Dox, in combination with bortezomib (BTZ, 1 μM) and the pan-caspase inhibitor Q-VD-OPh (QVD, 10 µM) inhibitors. 16 hours after treatment, cells were lysed by scraping and sonication in SDS-containing buffer. Protein levels of Mcl-1, Bcl-2 and Bcl-XL, as well as of UNC5B and B-actin, used as housekeeping gene, were evaluated by western blot. […] UNC5B over-expression specifically promoted Mcl-1 protein decrease. […] (D): Mcl-1 degradation induced by UNC5B requires COMMD2/CRL3 complex. HeLa UNC5B cells were transfected with scramble (siCTRL), COMMD2 (siCOMMD2) or RBX1 (siRBX1) siRNAs. […] Protein levels of Mcl-1, UNC5B and Ku80, used as housekeeping protein, were evaluated by western blot. […] Stable HeLa UNC5B cells, constitutively expressing Mcl-1 or empty vector, were treated with doxycycline and apoptosis was evaluated 18 hours later by DNA fragmentation (n=3, ^nsp>0.05, ordinary two-way ANOVA with Sidak's multiple comparisons test). […] Stable HeLa UNC5B cells, constitutively expressing Mcl-1, Bcl-2 or Bcl-XL were treated with Dox and protein levels were evaluated as described in (C). […] 18 hours later, protein levels of Mcl-1, UNC5B and β-actin, used as housekeeping gene, were evaluated by western blot. […] Cells were harvested at the indicated times after CHX treatment, and protein levels were assessed by western blot. […]
Compound,UNC5B-induced apoptosis (DNA fragmentation) (HeLa UNC5B cells),UNC5B-induced caspase-3 activation (caspase-3),UNC5B-induced caspase-9 activation (caspase-9),Mcl-1 protein levels / degradation triggered by UNC5B (Mcl-1)
CC(C)C[C@@H](C=O)NC(=O)[C@H](CC(C)C)NC(=O)[C@H](CC(C)C)NC(=O)OCc1ccccc1 [MG132] (Cbz-Leu-Leu-Leu-aldehyde),suppressed,suppressed,sufficient to prevent UNC5B-induced caspase-9 activation,–
CC(C)[C@H](NC(=O)c1ccc2ccccc2n1)C(=O)N[C@@H](CC(=O)O)C(=O)COc1c(F)cccc1F [Q-VD-OPh],completely prevented apoptosis induction,–,–,not sufficient to prevent Mcl-1 degradation
